In one test the target is T1, Trpv2 (Rattus norvegicus, UniProt Q9WUD2).
T1 sequence (Q9WUD2 1-761): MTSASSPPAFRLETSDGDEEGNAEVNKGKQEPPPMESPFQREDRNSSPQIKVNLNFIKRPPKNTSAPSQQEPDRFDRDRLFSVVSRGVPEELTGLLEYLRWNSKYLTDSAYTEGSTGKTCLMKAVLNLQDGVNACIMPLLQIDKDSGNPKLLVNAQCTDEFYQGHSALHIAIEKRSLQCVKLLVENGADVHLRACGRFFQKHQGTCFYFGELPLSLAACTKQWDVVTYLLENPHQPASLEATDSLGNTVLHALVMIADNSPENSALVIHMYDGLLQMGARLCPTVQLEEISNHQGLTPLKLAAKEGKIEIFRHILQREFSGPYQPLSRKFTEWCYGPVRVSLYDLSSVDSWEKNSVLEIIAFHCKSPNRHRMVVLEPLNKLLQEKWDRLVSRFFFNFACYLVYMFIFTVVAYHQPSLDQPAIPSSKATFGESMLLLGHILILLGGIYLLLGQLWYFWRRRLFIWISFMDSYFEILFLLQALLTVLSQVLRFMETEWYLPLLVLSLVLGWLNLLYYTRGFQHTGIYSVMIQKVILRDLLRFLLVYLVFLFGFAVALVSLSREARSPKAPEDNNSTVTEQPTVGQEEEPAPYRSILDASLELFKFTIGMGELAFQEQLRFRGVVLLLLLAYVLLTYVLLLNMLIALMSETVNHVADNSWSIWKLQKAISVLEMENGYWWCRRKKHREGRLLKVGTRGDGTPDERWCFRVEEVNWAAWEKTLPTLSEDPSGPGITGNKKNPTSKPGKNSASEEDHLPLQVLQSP
Kind of test: Single cell patch clamp of DA FLS. The test is classed as cell-based. Also on record: endogenous in cells; host or cells: FLS from DA rats with pristane-induced arthritis. As to conditions: perfusion with 30 μM. Here is the method: FLS obtained from DA rats with PIA were plated in culture medium onto glass coverslips and allowed to adhere at 37° C. Recordings were performed in the whole-cell configuration of the patch-clamp technique at room temperature using an EPC10-USB amplifier (HEKA instruments, Bellmore, N.Y.). […] The bath solution contained 132 mM NaCl, 5.4 mM KCl, 1.8 mM CaCl2, 0.8 mM MgCl2, 10 mM HEPES, and 10 mM glucose, at pH 7.4. O1821-activated currents were elicited with a 600 ms ramp from −100 to +100 mV from a holding potential of −107 mV. Addition of O1821 was accomplished by complete bath exchange.
(In general: Patch clamp records ionic current or voltage across a cell membrane.)

The next test has as its system FLS from RA patients. Kind of test: Matrigel transwell invasion assay, RA FLS. The class given is cell-based, human. The text has this: Human synovial tissues were obtained from RA patients undergoing elective orthopedic surgery. All patients met the American College of Rheumatology criteria for RA (Arnett et al, “The American Rheumatism Association 1987 Revised Criteria for the Classification of Rheumatoid Arthritis,” Arthritis Rheum. 31 (3):315-324 (1988), which is hereby incorporated by reference in its entirety). Informed consent was obtained from all participating subjects under an Institutional Review Board-approved protocol through the Feinstein Institute's Tissue Donation Program.
The in vitro invasiveness of FLS was assayed in a transwell system using Matrigel-coated inserts (BD Biosciences, Franklin Lakes, N.J.), as previously described (Tolboom et al., “Invasiveness of Fibroblast-Like Synoviocytes is an Individual Patient Characteristic Associated with the Rate of Joint Destruction in Patients with Rheumatoid Arthritis,” Arthritis Rheum. 52 (7):1999-2002 (2005); Laragione et al., “The Arthritis Severity Locus Cia5d is a Novel Genetic Regulator of the Invasive Properties of Synovial Fibroblasts,” Arthritis Rheum. 58 (8):2296-2306 (2008), which are hereby incorporated by reference in their entirety). […] The opposite side of the insert was stained with Crystal Violet (Sigma) and the total number of cells that invaded through Matrigel counted at 100× magnification. […]

SMILES strings stand for the structures.

Consider `C=C(C)[C@@H]1CCC(C)=C[C@H]1c1c(O)cc(C)cc1O` [Compound O1821], for which, at Trpv2, the Trpv2 channel current result is recorded as “induced channel opening”. For the same molecule, the “Reduction of RA FLS invasion” value with FLS from RA patients (20 μM) is listed as 90%; in the test on FLS from RA patients (50 μM), 99.4%.

(Values after patent US20200277246A1, “TREATMENT METHOD, COMPOUNDS, AND METHOD OF INCREASING TRPV2 ACTIVITY” (THE FEINSTEIN INSTITUTE FOR MEDICAL RESEARCH, priority 2015, published 2020).)
